The values below come from patent publication US9428452B2, “Compounds” (Glaxo Group Limited, priority 2012, dated 2016).

Test [1] addresses T1, Human RORγ Ligand Binding Domain (RORγ-LBD) (Homo sapiens, UniProt P51449).
T1 construct: His6 with thrombin site) (N); made in house; host or cells: E. coli BL21(DE3), modified pET21a vector
T1 sequence (P51449 263-518): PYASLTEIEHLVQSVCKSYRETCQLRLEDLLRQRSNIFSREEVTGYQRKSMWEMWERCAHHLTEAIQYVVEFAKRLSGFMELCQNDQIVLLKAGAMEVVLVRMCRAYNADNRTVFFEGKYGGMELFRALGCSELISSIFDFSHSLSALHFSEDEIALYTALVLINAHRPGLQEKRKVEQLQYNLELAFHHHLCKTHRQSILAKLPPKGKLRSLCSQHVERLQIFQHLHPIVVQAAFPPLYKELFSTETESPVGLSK
The test is described as follows: Dual Fluorescence Energy Transfer (FRET) assay: co-activator SRC1(2) peptide interaction with RORγ-LBD. Particulars: RORγ-LBD / SRC1(2) peptide, read-out: mean pIC50 (converted). The format is biochemical. An excerpt: Dual Fluorescence Energy Transfer (FRET) Assay
This assay is based on the knowledge that nuclear receptors interact with cofactors (transcription factors) in a ligand dependent manner. RORγ is a typical nuclear receptor in that it has an AF2 domain in the ligand binding domain (LBD) which interacts with co-activators.
This assay measures ligand-mediated interaction of the co-activator peptide with the purified bacterial-expressed RORγ ligand binding domain (RORγ-LBD) to indirectly assess ligand binding. RORγ has a basal level of interaction with the co-activator SRC1(2) in the absence of ligand, thus, it is possible to find ligands that inhibit or enhance the RORγ/SRC1(2) interaction.
Human RORγ Ligand Binding Domain (RORγ-LBD) was expressed in E. coli strain BL21(DE3) as an amino-terminal polyhistidine tagged fusion protein. DNA encoding this recombinant protein was sub-cloned into a modified pET21a expression vector (Novagen).
Approximately 50 g E. coli cell pellet was resuspended in 300 mL of lysis buffer (30 mM imidazole pH 7.0 and 150 mM NaCl). Cells were lysed by sonication and cell debris was removed by centrifugation for 30 minutes at 20,000 g at 4° C. […] The clarified lysate was loaded onto a column (XK-26) packed with ProBond Nickel Chelating resin (InVitrogen), pre-equilibrated with 30 mM imidazole pH 7.0 and 150 mM NaCl. After washing to baseline absorbance with the equilibration buffer, the column was developed with a gradient from 30 to 500 mM imidazole pH 7.0. Column fractions containing the RORγ-LBD protein were pooled and concentrated to a volume of 5 mLs. The concentrated protein was loaded onto a Superdex 200 column pre-equilibrated with 20 mM Tris-Cl pH 7.2 and 200 mM NaCl. The fractions containing the desired RORγ-LBD protein were pooled together.
Purified RORγ-LBD was buffer exchanged by exhaustive dialysis [3 changes of at least 20 volumes (>8000×)] against PBS [100 mM NaPhosphate, pH 8 and 150 mM NaCl]. […] The modified RORγ-LBD was dialyzed against 2 buffer changes—TBS pH 8.0 containing 5 mM DTT, 2 mM EDTA and 2% sucrose—each at least 20 times of the volume. The modified protein was distributed into aliquots, frozen on dry ice and stored at −80° C. The biotinylated RORγ-LBD was subjected to mass spectrometric analysis to reveal the extent of modification by the biotinylation reagent.
Biotinylated SRC1(2) solution was prepared by adding an appropriate amount of biotinylated SRC1(2) from the 100 uM stock solution to a buffer containing 10 mM of freshly added DTT from solid to give a final concentration of 40 nM. An appropriate amount of Europium labeled Streptavidin was then added to the biotinylated SRC1(2) solution in a tube to give a final concentration of 10 nM. The tube was inverted gently and incubated for 15 minutes at room temperature. Twenty-fold excess biotin from the 10 mM stock solution was added and the tube was inverted gently and incubated for 10 minutes at room temperature.
Biotinylated RORγ-LBD solution was prepared by adding an appropriate amount of biotinylated RORγ-LBD from the stock solution to a buffer containing 10 mM of freshly added DTT from solid to give a final concentration of 40 nM. An appropriate amount of APC labeled Streptavidin was then added to the biotinylated RORγ-LBD solution in a tube to give a final concentration of 20 nM. The tube was inverted gently and incubated for 15 minutes at room temperature. Twenty-fold excess biotin from the 10 mM stock solution was then added and the tube was inverted gently and incubated for 10 minutes at room temperature.
The reaction mixtures were incubated for 5 minutes. […] The plates were incubated for 1 hour and then read on ViewLux in Lance mode for EU/APC.

A further test has as its system IL-17A mRNA expression. The test is described as follows: Ex-vivo human skin model, IL-17A mRNA expression. The format is cell-based. To be noted: for Percentage of inhibition of IL-17A mRNA expression: Th17 cytokine cocktail 24 h, RT-PCR. On the procedure: (§1) Fresh ex vivo human skin from healthy bariatric patients, that underwent abdominoplasty skin removal, was de-fatted and dermatomed at 750 μm. Dermatomed skin was incubated twice for 5-10 minutes at room temperature in PBS containing a antibiotic/antimycotic solution: Fungizone (Invitrogen #15290018), PSG (Fisher #BW17718R) and Gentamicin (Invitrogen #15750060). Skin was treated aseptically from this point on. Individual skin samples were obtained by 10 mm punch biopsy and placed in a 0.4 μm PCF membrane transwell (Millicell #PIHP01250) containing 30 μl of a 64% bovine collagen solution. After a 30 minute incubation at 37° C., which allows the collagen solution time to set, skin samples on transwells were transferred to 6-well plates (1 sample per well) and the lower chamber filled with 1 ml complete media (Cornification Media)+hydrocortisone (final concentration of 0.4 μg/ml) with or without test compounds at 10 μM (day −3) and allowed to rest overnight (16-18 h) at 37° C. Next, media was aspirated from the lower chamber, replaced with 1 ml complete media without hydrocortisone and incubated at 37° C. for 1 h. This constituted a ‘wash’ step. Following the hydrocortisone washout, media was again aspirated from the lower chamber and replaced with 1.0 ml complete media without hydrocortisone with or without GSK compounds at 10 μM (day −2). Cultures were incubated at 37° C. in a humidified chamber and media was refreshed one more day (day-1). The following day (day-0), cultures were stimulated for 24 h with a freshly made Th17 cytokine cocktail (CD3, 1 μg/ml, CD28, 2 μg/ml, IL-1b, 10 ng/ml, IL-6, 5 ng/ml, TGFb, 1 ng/ml, IL-21, 10 ng/ml, anti-IL-4, 1 μg/ml and anti-INFg, 1 μg/ml) with or without test compounds at 10 μM. Upon harvest (day +1), skin samples were minced with a razor blade and transferred to 1.5 ml RNAse-free tubes with 1 ml RNAlater solution until later analysis by RT-PCR (stored at −80 C).
(§2) Total RNA was isolated from about 30-40 mg of tissue using Qiagen's (Cat #74106) Mini RNA Isolation kit. Briefly, tissue was homogenized in the Precellys-24 machine using 300 μL of RLT buffer supplemented with 1% 2-Beta-Mercapto-Ethanol at 6300 rpm for 30 seconds for 6 cycles with a 2-minute ice break. 600 μL of water containing Proteinase K was added to the homogenate and digested at 55 C for 15 minutes. Digested tissue was spun down for 3 minutes at 10,000×g and the supernantant was used for RNA isolation using Qiagen's RNeasy mini columns according to manufacturer's protocol. 100 ng of RNA was used as template in a 20 μL PCR volume using Applied Biosciences RNA-to-CT 1 Step kit (AB Catalog #4392938) as well as the specific TaqMan probe for each gene to be quantified. Life Technologies FAM labeled Probes Catalog Numbers are as follows: ACTb=Hs01060665_g1, IL-17A=Hs00174383_m1, IL-17F=Hs00369400_m1, IL-22=Hs01574154_m1. All probes used (except for ACTb) expand an Exon. Applied Biosciences' Master Mix has a ROX dye internal control. OneStepPlus PCR machine was used for both the RT step and the 40 amplification cycles. RNA levels of gene of interest's relative expression were calculated using the Delta Delta CT formula.
(§3) First delta: Normalized to ACTb gene expression
(§4) Second delta: Normalized to sample 13 (Day 0+DMSO) for the gene of interest.

For the next test, the system named is IL-17F mRNA expression. As to the kind of experiment: Ex-vivo human skin model, IL-17F mRNA expression. To be noted: for Percentage of inhibition of IL-17F mRNA expression: Th17 cytokine cocktail 24 h, RT-PCR. The format is cell-based. On the procedure:
as §1, §2, §3, §4

The subject of a further test is IL-22 mRNA expression. As to the kind of experiment: Ex-vivo human skin model, IL-22 mRNA expression. The format is cell-based. To be noted: for Percentage of inhibition of IL-22 mRNA expression: Th17 cytokine cocktail 24 h, RT-PCR. How it is done:
as §1, §2, §3, §4

[2] abbreviates: four different donors, compound 10 μM.

Marks after values point to notes of the source that are not given here.

With `CCc1ccc(N(CC(C)C)S(=O)(=O)c2ccc([C@H](O)CN3CCOCC3)c(CO)c2)cc1` [Example E125, N-(4-ethylphenyl)-4-(1-hydroxy-2-morpholinoethyl)-3-(hydroxymethyl)-N-isobutylbenzenesulfonamide], the IC50 in test [1] was 31.6 nM. In addition, the “Percentage of inhibition of IL-17A mRNA expression” value in the test on IL-17A mRNA expression (Skin Donor 1, compound 10 μM) is listed as 65% *; in the test on IL-17A mRNA expression (Skin Donor 2, compound 10 μM) it was 92% *; in the test with IL-17A mRNA expression (Skin Donor 3, compound 10 μM) it was 65% *; in the test on IL-17A mRNA expression (Skin Donor 4, compound 10 μM), 93% *. In addition, in the test with IL-17A mRNA expression (setting [2]), the “gene transcription of il17a (result in words)” value was “inhibited”. For the same compound, the “Percentage of inhibition of IL-17F mRNA expression” value in the test on IL-17F mRNA expression (Skin Donor 1, compound 10 μM) came out at 39%; in the test on IL-17F mRNA expression (Skin Donor 2, compound 10 μM) it was 89% *; in the test on IL-17F mRNA expression (Skin Donor 3, compound 10 μM) it was 45%; with IL-17F mRNA expression (Skin Donor 4, compound 10 μM), 80% *. Further, the “gene transcription of il17f (result in words)” value with IL-17F mRNA expression (setting [2]) is “inhibited”. The “Percentage of inhibition of IL-22 mRNA expression” value in the test on IL-22 mRNA expression (Skin Donor 1, compound 10 μM) is 52% *; in the test on IL-22 mRNA expression (Skin Donor 2, compound 10 μM) it was 52%; in the test on IL-22 mRNA expression (Skin Donor 3, compound 10 μM) it was 20%; in the test on IL-22 mRNA expression (Skin Donor 4, compound 10 μM), 70% *. Moreover, the “gene transcription of il22 (result in words)” value with IL-22 mRNA expression (setting [2]) is listed as “inhibited”.
